# Test results taken from patent US20210330611A1, “THERAPY FOR NEUROLOGICAL DISEASES/DISORDERS” (priority 2020, published 2021).
# Like-named read-outs stand apart in the source and are kept apart here.
# Experiments:
# [1] = system: fibrin-induced microglia activation; assay: Image-based assay of fibrin-induced microglia activation (HTS and dose response); assay type: cell-based, rat; conditions: for inhibition at 10 µM: Rattus norvegicus, Microglia, read-out: Fibrin % inhibition
# [2] = system: LPS-induced microglia activation; assay: Image-based assay of LPS-induced microglia activation (HTS and dose response); assay type: cell-based, rat; conditions: for inhibition at 10 µM: Rattus norvegicus, Microglia, read-out: LPS % inhibition
# [3] = system: fibrin- and LPS-induced microglia activation; assay: cells; assay type: cell-based, rat
# primary rat microglia [4] = assay: Cell toxicity (dead cells, size <150 μm2) in LPS assay
# primary rat microglia [5] = assay: Cell toxicity (dead cells, size <150 μm2) in coated fibrin (cFib) assay;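 note: share of dead cells sized under 150 µm2 at 10 µM in fibrin-stimulated microglia HTS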
# [6] = primary HTS, 10 μM, fibrin-stimulated primary microglia
# [7] = primary HTS, 10 μM, LPS-stimulated primary microglia
# [8] = primary HTS, 10 μM, LPS assay, dead cells size <150 μm2
# [9] = primary HTS, 10 μM, fibrin assay, dead cells size <150 μm2
# [10] = primary microglia HTS, fibrin stimulation, increased cell size (>800 μm^2) as marker of activation
# [11] = 48 h, primary microglia HTS, LPS stimulation, increased cell size (>800 μm^2) as marker of activation
# [12] = quadrant by fibrin and LPS inhibition in HTS of 1907 compounds
# [13] = primary microglia HTS, LPS stimulation, decreased size (<150 μm^2) as marker of toxicity
# [14] = primary microglia HTS, fibrin stimulation, decreased size (<150 μm^2) as marker of toxicity
# [15] = primary microglia HTS, fibrin stimulation, activation = cell size >800 μm2
# [16] = 48 h, primary microglia HTS, LPS stimulation, activation = cell size >800 μm2
# [17] = primary microglia HTS, LPS stimulation, toxicity = cell size <150 μm2
# [18] = primary microglia HTS, fibrin stimulation, toxicity = cell size <150 μm2
compound,measurement,setting,value
CCOC(=O)n1ccn(C)c1=S [Carbimazole],inhibition at 10 µM,[1]; [6],-32%
same,inhibition at 10 µM,[2]; [7],8%
same,Quadrant (FIG. 5b),"[3]; primary HTS, 10 μM",Q4
same,LPS % cell toxicity,primary rat microglia [4]; [8],0%
same,Fibrin % cell toxicity,primary rat microglia [5]; [9],0%
O=C([O-])C(O)[C@H](O)[C@@H](O)[C@H](O)[C@H](O)CO.O=C([O-])C(O)[C@H](O)[C@@H](O)[C@H](O)[C@H](O)CO.[Ca+2] (some centres unmarked) [Calcium Gluceptate],Fibrin % inhibition,[1]; [6],8%
same,LPS % inhibition,[2]; [7],8%
same,Quadrant (FIG. 5b),"[3]; primary HTS, 10 μM",Q4
same,LPS % cell toxicity,primary rat microglia [4]; [8],0%
same,Fibrin % cell toxicity,primary rat microglia [5]; [9],1%
CN1C(CCl)Nc2cc(Cl)c(S(N)(=O)=O)cc2S1(=O)=O (centres unmarked) [Methyclothiazide],inhibition at 10 µM,[1]; [10],25%
same,inhibition at 10 µM,[2]; [11],17%
same,Quadrant (FIG. 5b),[3]; [12],Q4
same,LPS % cell toxicity,primary rat microglia [4]; [13],0%
same,Fibrin % cell toxicity,primary rat microglia [5]; [14],1%
CCC(NC(C)C)C(O)c1ccc(O)c(O)c1 (centres unmarked) [Isoetarine],inhibition at 10 µM,[1]; [15],21%
same,inhibition at 10 µM,[2]; [16],23%
same,Quadrant (FIG. 5b),[3]; [12],Q4
same,LPS % cell toxicity,primary rat microglia [4]; [17],0%
same,Fibrin % cell toxicity,primary rat microglia [5]; [18],1%
CN(C)CCN(Cc1ccc(Cl)cc1)c1ccccn1 [Chloropyramine],inhibition at 10 µM,[1]; [6],25%
same,inhibition at 10 µM,[2]; [7],13%
same,Quadrant (FIG. 5b),"[3]; primary HTS, 10 μM",Q4
same,LPS % cell toxicity,primary rat microglia [4]; [8],0%
same,Fibrin % cell toxicity,primary rat microglia [5]; [9],1%
CN(Cc1cc(Br)cc(Br)c1N)C1CCCCC1 [Bromhexine],inhibition at 10 µM,[1]; [6],-16%
same,inhibition at 10 µM,[2]; [7],11%
same,Quadrant (FIG. 5b),"[3]; primary HTS, 10 μM",Q4
same,LPS % cell toxicity,primary rat microglia [4]; [8],0%
same,Fibrin % cell toxicity,primary rat microglia [5]; [9],0%
C/C(=C\C(=O)OCCCCCCCCC(=O)O)C[C@@H]1OC[C@H](C[C@@H]2O[C@H]2[C@@H](C)[C@H](C)O)[C@@H](O)[C@H]1O [Mupirocin],inhibition at 10 µM,[1]; [10],11%
same,inhibition at 10 µM,[2]; [11],20%
same,Quadrant (FIG. 5b),[3]; [12],Q4
same,LPS % cell toxicity,primary rat microglia [4]; [13],0%
same,Fibrin % cell toxicity,primary rat microglia [5]; [14],1%
CO[C@H]1C[C@H](O[C@H]2[C@H](C)[C@@H](O[C@@H]3O[C@H](C)C[C@H](N(C)C)[C@H]3O)[C@@H](C)C[C@@]3(CO3)C(=O)[C@H](C)[C@@H](O)[C@@H](C)[C@@H](C)OC(=O)[C@@H]2C)O[C@@H](C)[C@@H]1O [Oleandomycin Phosphate],inhibition at 10 µM,[1]; [10],-9%
same,inhibition at 10 µM,[2]; [11],16%
same,Quadrant (FIG. 5b),[3]; [12],Q4
same,LPS % cell toxicity,primary rat microglia [4]; [13],0%
same,Fibrin % cell toxicity,primary rat microglia [5]; [14],1%
CC(=O)OCC1=C(C(=O)O)N2C(=O)[C@@H](NC(=O)CSc3ccncc3)[C@H]2SC1 [Cefapirin],inhibition at 10 µM,[1]; [6],-26%
same,inhibition at 10 µM,[2]; [7],7%
same,Quadrant (FIG. 5b),"[3]; primary HTS, 10 μM",Q4
same,LPS % cell toxicity,primary rat microglia [4]; [8],0%
same,Fibrin % cell toxicity,primary rat microglia [5]; [9],0%
Clc1cc(Cl)c(OCC#CI)cc1Cl [Haloprogin],inhibition at 10 µM,[1]; [10],78%
same,inhibition at 10 µM,[2]; [11],106%
same,Quadrant (FIG. 5b),[3]; [12],Q2
same,LPS % cell toxicity,primary rat microglia [4]; [13],70%
same,Fibrin % cell toxicity,primary rat microglia [5]; [14],42%
O[C@H]1[C@H](O)[C@@H](O)[C@H](O)[C@@H](O)[C@H]1O [Inositol],inhibition at 10 µM,[1]; [15],-21%
same,inhibition at 10 µM,[2]; [16],11%
same,Quadrant (FIG. 5b),[3]; [12],Q4
same,LPS % cell toxicity,primary rat microglia [4]; [17],0%
same,Fibrin % cell toxicity,primary rat microglia [5]; [18],0%
O=C1OC(CN2CCOCC2)CN1/N=C/c1ccc([N+](=O)[O-])o1 (centres unmarked) [Furaltadone],inhibition at 10 µM,[1]; [15],-60%
same,inhibition at 10 µM,[2]; [16],0%
same,Quadrant (FIG. 5b),[3]; [12],Q4
same,LPS % cell toxicity,primary rat microglia [4]; [17],0%
same,Fibrin % cell toxicity,primary rat microglia [5]; [18],1%
CN(Cc1ccc(C(C)(C)C)cc1)Cc1cccc2ccccc12 [Butenafine],inhibition at 10 µM,[1]; [6],-4%
same,inhibition at 10 µM,[2]; [7],-8%
same,Quadrant (FIG. 5b),"[3]; primary HTS, 10 μM",Q4
same,LPS % cell toxicity,primary rat microglia [4]; [8],0%
same,Fibrin % cell toxicity,primary rat microglia [5]; [9],1%
